In patent US7128900B2, “Light-protection agents” (Merck Patent GmbH, priority 2002, dated 2006):
Several values for one entry are separate records, joined by “and”; a condition that tells them apart may be missing. Equal values may be shown once.

Experiment: UV absorption spectrum (UV-VIS) in 2-propanol
Assay type: physicochemical
Conditions: for UV absorption maximum λ / ε at the UV absorption maximum: in 2-propanol; for UV-vis λmax: several maxima listed
Method: The UV-VIS spectrum was measured on a Varian Cary 100 biospectrophotometer fitted with a heated cell holder (concentration=0.001 g/100 ml of 2-propanol; cell thickness d=1 cm; wavelength range: 200 to 800 nm).
The UV-VIS spectrum was measured on a Varian Cary 100 biospectrophotometer fitted with a heated cell holder (concentration=0.001 g/ 100 ml of 2-propanol; cell thickness d=1 cm; wavelength range: 200 to 800 nm).

| SMILES | UV absorption maximum λ [nm] | ε at the UV absorption maximum | UV-vis λmax (2-propanol, 1 mg/100 ml) | further results |
| --- | --- | --- | --- | --- |
| COc1ccc(-c2cc(=O)c3cc(O)ccc3o2)cc1 [Example 1, 4′-methoxy-6-hydroxyflavone] | 322 | 24790 | – | – |
| O=c1cc(-c2ccc(O)cc2)oc2ccc(O)cc12 [Example 6, 2-(4′-hydroxyphenyl)-6-hydroxy-4-oxo-4H-1-benzopyran] | – | – | 228 nm and 277 nm and 328 nm | UV-vis (e) at λmax 228 nm (2-propanol, 1 mg/100 ml, 228 nm): 23068; UV-vis (e) at λmax 277 nm (2-propanol, 1 mg/100 ml, 277 nm): 14805; UV-vis (e) at λmax 328 nm (2-propanol, 1 mg/100 ml, 328 nm): 30971 |
| COc1ccc(-c2cc(=O)c3ccc(OC4O[C@H](CO)[C@@H](O)[C@H](O)[C@H]4O)cc3o2)cc1 (stereo partly drawn) [Example 4, 4′-methoxy-7-β-glucosidylflavone] | 318 | 37185 | – | – |

Continued, in another order:

| UV absorption maximum λ [nm] | ε at the UV absorption maximum | UV-vis λmax (2-propanol, 1 mg/100 ml) | SMILES | further results |
| --- | --- | --- | --- | --- |
| 329 | 27960 | – | O=c1cc(-c2ccc(O)cc2)oc2cc(O)ccc12 [Example 3, 4′,7-dihydroxyflavone] | – |
| – | – | 281 nm and 324 nm | COc1cc(-c2cc(=O)c3cc(O)c(O)cc3o2)cc(OC)c1OC [Example 5, 2-(3′,4′,5′-trimethoxyphenyl)-6,7-dihydroxy-4-oxo-4H-1-benzopyran] | UV-vis (e) at λmax 281 nm (2-propanol, 1 mg/100 ml, 281 nm): 8267; UV-vis (e) at λmax 324 nm (2-propanol, 1 mg/100 ml, 324 nm): 16036 |
